Test results taken from patent EP4201411A1, “NOVEL USE OF VITAMIN B12” (DSM IP Assets B.V., priority 2021, dated 2023).

Legend:
Format in all cases: cell-based, human
skin explants = experiment: LDH cytotoxicity assay on UV-B irradiated skin explants (ex vivo); details: for Cytotoxicity [OD 450 nm] Mean/conditions: LDH production, skin explants irradiated with 200 mJ/cm2 UVB
Description: (§1) To further define the benefits of vitamin B12 in the skin, we included analysis of the compound in response to a stressor that induces inflammasome-medicated inflammation. Stress model options include UV exposure, confirming the effects on more complex skin tissues (ex vivo model). Firstly, the cytotoxicity of the active ingredient was evaluated. Then, the capacity of the active ingredient was measured to regulate inflammasome activation. […] Using immunohistochemistry, the effect of the active ingredient on the level of ASC protein (inflammasome marker) was studied. Finally, the expression level of miRNA hsa-miR-22-3p was quantified from RT-qPCR.
(§2) Ex vivo culture model and treatment: Fresh skin explants were obtained from abdominal surgery of a person. The culture medium dedicated to skin explants was used and renewed every day during each treatment. The skin biopsies were cultured in different conditions and each condition was performed in triplicates and processed separately. The active ingredient treatment was applied before and after the UV-B stress, but not during the UV stress. An UV-B irradiation of […] for 2 minutes was applied identically onto each irradiated skin explant. Prior to the irradiation, the culture medium was removed and replace by PBS +/+ for the duration of the stress.
(§3) Samples: • 1.Control Explant (No treatment, no irradiation) (NT_NS) • 2. Explant + UVB (NT_UV) • 3. Explant + UVB + vitamin B12 (0.01%) • 4. Explant + UVB + vitamin B12 (0.001%) Total no. of samples = 4 x 3 = 12 samples
Cytotoxicity method: Lactate dehydrogenase assay kit (LDH) was purchased from Roche and used according to manufacturer's protocol.
Table 1: Effect of vitamin B12 on LDH production by skin explants at 2 concentrations (0,01% and 0,001%) and of the positive control Triton at 0.1% after irradiation with 200 mJ/cm2 UVB. The statistical analysis was performed using two-tailed unpaired T-test and was not significant (p<0.05) for the vitamin B12 treatment vs irradiated control (NT_UV).

miR-22-3p = miR-22-3p quantification by RT-qPCR in UV-B irradiated skin explants (ex vivo); details: for miR-22-3p QR mean: skin explants, UV-B 200 mJ/cm2, normalized using U6 RNA, NT_UV = 1.067; for expression level of miR-22-3p (in words): skin explants after UV-B stress, vs NT_UV
Description: as §1, §2, §3
The miRNAs were extracted and purified using miRCURY RNA Isolation Kit. The quality control and miRNA quantification were performed using Agilent RNA Small kit and Analysis Agilent 2100 bioanalyzer. For miR qPCR, the RNA was reverse transcribed with a miRCURY LNA RT kit (339340, Qiagen). The reverse transcription reactions were diluted, and a fraction of diluted cDNA was used for each quantitative PCR, which was performed with a miRCURY LNA SYBR Green PCR kit (339346, Qiagen) using the CFX-connect (Biorad). The results were normalized to U6 expression. The reference and expression level of miRNA were calculated using 2ΔΔCt method.
Table 2: Effect of vitamin B12 on miR expression in skin explants after UV-B stress. The explants were treated with vitamin B12 at two concentrations (0,01% and 0,001%) and irradiated with UV-B at 200 mJ/cm2. The miR expression was normalized using U6 RNA. Two-tailed unpaired t-test was used for statistical analysis (using values from 3 replicates) vs NT_UV (*p-value <0.05).

Interleukin-1β = experiment: IL-1β competitive ELISA on culture supernatants of UV-B irradiated skin explants (ex vivo); details: vitamin B12 0,01%
Description: as §1, §2, §3
The secretion of Interleukin-1β in response to activation of the stress-induced inflammatory signaling pathway was evaluated using a competitive ELISA assay. 24 hours after exposure to UV-B irradiation, culture supernatants of explants were recovered. The samples were then treated according to the manufacturer's instructions using the IL-1β (RAB0273, Sigma Aldrich). The Interleukin production by explants was measured at 450 nm using ENSIGHT.
IL-1β secretion results: UV-B increased the production of IL-1β compared to the untreated control. […]

ASC protein = experiment: ASC immunostaining of sections of UV-B irradiated skin explants (ex vivo); details: for ASC complex, % / ASC complex, mean_int (int/area) / ASC complex, Mean intensity / condition: skin explant sections, UVB 200mJ/cm2; for ASC complex, %: NTNS = 100.00, NTUV = 138.17; for ASC complex, mean_int (int/area) / ASC complex, Mean intensity / condition: n =38; for ASC complex, Mean intensity / condition: NTUV = 660.03, NTNS = 477.70
Description: as §1, §2, §3
To evaluate the onset of apoptotic signaling, the fluorescence intensity of ASC was measured. After UV exposure, the explants were replaced in a fresh culture medium. At the end of the treatments the explants were frozen and then cut into thin sections. Following this, immunohistochemistry was performed by adding primary monoclonal Antibody ASC/TMS1/PYCARD (clone B-3) (SantaCruz #sc-514414) and secondary antibody anti-mouse coupled to Cy5 (Jackson Laboratory). After Hoechst 33342 staining, the fluorescence intensity was measured using a Zeiss fluorescence microscope (Axio imager Z1).
Table 4: Quantification of ASC complex immunolabelled in skin explant sections with or without UV-B stress and after vitamin B12 treatment at 0,01% or 0,001% and irradiated or not with UVB at 200mJ/cm2. The statistical analysis was performed using two-tailed unpaired T-test vs NT_UV (+ p-value <0.05, ++ p-value<0.01, +++ p-value<0.001).

Substance: cyanocobalamin [vitamin B12]
- Cytotoxicity [OD 450 nm] Mean/conditions (skin explants; vitamin B12 0,01%): 0.131 OD 450 nm
- Cytotoxicity [OD 450 nm] Mean/conditions (skin explants; vitamin B12 0,001%): 0.163 OD 450 nm
- cytotoxicity (in words) (skin explants; vitamin B12 0,01% and 0,001%, skin explants after UVB, compared to biopsies treated with Triton 0.1%): did not exert cytotoxicity
- miR-22-3p QR mean (miR-22-3p; vitamin B12 0,01%): 1.721
- expression level of miR-22-3p (in words) (miR-22-3p; vitamin B12 0.01%): significantly increased
- expression level of miR-22-3p (in words) (miR-22-3p; vitamin B12 0,001%): tends to increase miR-22-3p expression, but this activation is not statistically significant
- miR-22-3p QR mean (miR-22-3p; vitamin B12 0,001%): 1.334
- IL-1β secretion (in words) (Interleukin-1β; skin explants after UV-B stress): seems to decrease
- IL-1β secretion, Relative Intensity (Interleukin-1β; skin explants after UV-B, NT_NS = 100, NT_UV = 157): 137
- IL-1β secretion, Mean Intensity (Interleukin-1β; skin explants, 24 hours after UV-B, NT_UV = 4.914, NT_NS = 3.122): 4.2644
- ASC complex, % (ASC protein; vitamin B12 0,01%): 103.22%
- ASC complex, mean_int (int/area) (ASC protein; vitamin B12 0,01%): 491.31 int/area
- ASC complex, Mean intensity / condition (ASC protein; vitamin B12 0,01%): 493.07
- ASC protein (in words) (ASC protein; vitamin B12 0.001 % and 0.01 % topically on UV-irradiated skin explants): significantly reduced the ASC protein in a dose-dependent manner
- ASC complex activation (in words) (ASC protein; vitamin B12 0.001%, after UV-B treatment): significantly reduces the ASC complex activation
- ASC complex activation (in words) (ASC protein; vitamin B12 0.01%, compared to the UV-B stressed sample): significantly reduce the ASC complex activation to the level of the none irradiated extract
- ASC complex, % (ASC protein; vitamin B12 0,001%): 118.48%
- ASC complex, mean_int (int/area) (ASC protein; vitamin B12 0,001%): 524.44 int/area
- ASC complex, Mean intensity / condition (ASC protein; vitamin B12 0,001%): 565.99
